Test results taken from the NIST ThermoML archive (doi:10.1021/je3011979).
Numbers after ± are expanded uncertainties.

Assays:
[1] = xn = mol fraction of the nth substance listed; details: 101 kPa, Liquid, Vibrating tube method
[2] = excess molar enthalpy (molar enthalpy of mixing); xn = mol fraction of the nth substance listed; details: 291.15 K, 101 kPa, Liquid, Calvet calorimetry

CCCOC(C)=O [propyl ethanoate] + CCCCCCC
[1]
Details | mass density [kg/m3]
291.15 K, x1 = 0.0086 | 686.6 ± 0.3
291.15 K, x1 = 0.032 | 690.1 ± 0.3
291.15 K, x1 = 0.0864 | 698.2 ± 0.3
291.15 K, x1 = 0.1706 | 711.3 ± 0.3
291.15 K, x1 = 0.2573 | 725.7 ± 0.3
291.15 K, x1 = 0.3308 | 738.6 ± 0.3
291.15 K, x1 = 0.3974 | 750.9 ± 0.3
291.15 K, x1 = 0.4644 | 763.7 ± 0.3
291.15 K, x1 = 0.5398 | 778.9 ± 0.3
291.15 K, x1 = 0.6055 | 792.8 ± 0.3
291.15 K, x1 = 0.6723 | 807.4 ± 0.3
291.15 K, x1 = 0.7257 | 819.6 ± 0.3
291.15 K, x1 = 0.8 | 837.2 ± 0.3
291.15 K, x1 = 0.8457 | 848.5 ± 0.4
291.15 K, x1 = 0.9057 | 864 ± 0.4
291.15 K, x1 = 0.9708 | 881.6 ± 0.4
291.15 K, x1 = 1 | 889.6 ± 0.2
298.15 K, x1 = 0.0149 | 681.8 ± 0.3
298.15 K, x1 = 0.0308 | 684 ± 0.3
298.15 K, x1 = 0.0953 | 693.5 ± 0.3
298.15 K, x1 = 0.168 | 704.8 ± 0.3
298.15 K, x1 = 0.2358 | 715.8 ± 0.3
298.15 K, x1 = 0.3084 | 728.2 ± 0.3
298.15 K, x1 = 0.375 | 740.2 ± 0.3
298.15 K, x1 = 0.4386 | 752.1 ± 0.3
298.15 K, x1 = 0.5062 | 765.3 ± 0.3
298.15 K, x1 = 0.5643 | 777.2 ± 0.3
298.15 K, x1 = 0.6488 | 795.2 ± 0.3
298.15 K, x1 = 0.6684 | 799.5 ± 0.3
298.15 K, x1 = 0.7446 | 816.9 ± 0.3
298.15 K, x1 = 0.793 | 828.4 ± 0.3
298.15 K, x1 = 0.8688 | 847.3 ± 0.4
298.15 K, x1 = 0.91 | 858 ± 0.4
298.15 K, x1 = 0.9508 | 868.8 ± 0.4
298.15 K, x1 = 1 | 882.5 ± 0.2
318.15 K, x1 = 0.0291 | 666.1 ± 0.3
318.15 K, x1 = 0.0843 | 673.9 ± 0.3
318.15 K, x1 = 0.1595 | 685.1 ± 0.3
318.15 K, x1 = 0.23 | 696.3 ± 0.3
318.15 K, x1 = 0.2972 | 707.3 ± 0.3
318.15 K, x1 = 0.3638 | 718.8 ± 0.3
318.15 K, x1 = 0.4295 | 730.8 ± 0.3
318.15 K, x1 = 0.4902 | 742.3 ± 0.3
318.15 K, x1 = 0.553 | 754.6 ± 0.3
318.15 K, x1 = 0.6057 | 765.4 ± 0.3
318.15 K, x1 = 0.6734 | 779.8 ± 0.3
318.15 K, x1 = 0.726 | 791.4 ± 0.3
318.15 K, x1 = 0.7727 | 802.1 ± 0.3
318.15 K, x1 = 0.7949 | 807.7 ± 0.3
318.15 K, x1 = 0.8645 | 824.4 ± 0.3
318.15 K, x1 = 0.9242 | 839.3 ± 0.4
318.15 K, x1 = 1 | 859.8 ± 0.2
328.15 K, x1 = 0.0373 | 658.5 ± 0.3
328.15 K, x1 = 0.0866 | 665.4 ± 0.3
328.15 K, x1 = 0.1645 | 676.8 ± 0.3
328.15 K, x1 = 0.2401 | 688.6 ± 0.3
328.15 K, x1 = 0.3096 | 700 ± 0.3
328.15 K, x1 = 0.3783 | 711.8 ± 0.3
328.15 K, x1 = 0.4478 | 724.3 ± 0.3
328.15 K, x1 = 0.5142 | 736.8 ± 0.3
328.15 K, x1 = 0.5756 | 748.9 ± 0.3
328.15 K, x1 = 0.6377 | 761.7 ± 0.3
328.15 K, x1 = 0.6884 | 772.5 ± 0.3
328.15 K, x1 = 0.756 | 787.5 ± 0.3
328.15 K, x1 = 0.8074 | 799.5 ± 0.3
328.15 K, x1 = 0.856 | 811.2 ± 0.3
328.15 K, x1 = 0.9097 | 824.7 ± 0.4
328.15 K, x1 = 0.9638 | 838.7 ± 0.4
328.15 K, x1 = 1 | 848.3 ± 0.2

[2]
Details | excess molar enthalpy [kcal/mol]
x1 = 0.0996 | 0.104 ± 0.00143
x1 = 0.2001 | 0.181 ± 0.00191
x1 = 0.2956 | 0.2392 ± 0.00215
x1 = 0.3852 | 0.2725 ± 0.00239
x1 = 0.4642 | 0.2849 ± 0.00239
x1 = 0.5309 | 0.2856 ± 0.00239
x1 = 0.588 | 0.2746 ± 0.00239
x1 = 0.638 | 0.2565 ± 0.00215
x1 = 0.656 | 0.25 ± 0.00215
x1 = 0.7113 | 0.2266 ± 0.00215
x1 = 0.7717 | 0.1936 ± 0.00191
x1 = 0.8326 | 0.153 ± 0.00167
x1 = 0.8942 | 0.104 ± 0.00167
x1 = 0.9501 | 0.054 ± 0.00143
